Source: the supplement of paper PMC3068080

Experiments:
[1] = test system: TGFBR1 mRNA; experiment: remaining TGFBR1 mRNA relative to control siRNA (off-target knock-down) (fraction of control); quantification method: branched DNA (R1), qPCR (R2); higher = less knock-down
Method: (§1)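 Screen-hit siRNA duplexes (19-mer plus 3' dTdT overhang) were transiently transfected into HaCaT cells in 12-well plates. After 48 h, TGFBR1 and TGFBR2 mRNA were quantified by branched DNA assay (QuantiGene, normalised to HPRT1) or by SYBR qPCR (normalised to HPRT1/SMAD4). Values are the remaining mRNA relative to control-siRNA-transfected cells; 1-2 biological replicates.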

[2] = test system: TGFBR2 mRNA; experiment: remaining TGFBR2 mRNA relative to control siRNA (off-target knock-down) (fraction of control); quantification method: branched DNA (R1), qPCR (R2); higher = less knock-down
Method: as §1

[3] = test system: TGFBR1 mRNA; experiment: remaining TGFBR1 mRNA relative to control siRNA (off-target knock-down) (fraction of control); quantification method: qPCR; higher = less knock-down
Method: as §1

[4] = test system: TGFBR2 mRNA; experiment: remaining TGFBR2 mRNA relative to control siRNA (off-target knock-down) (fraction of control); quantification method: qPCR; higher = less knock-down
Method: as §1

[5] = test system: TGFBR2 mRNA; experiment: remaining TGFBR2 mRNA relative to control siRNA (off-target knock-down) (fraction of control); quantification method: branched DNA; higher = less knock-down
Method: as §1

[6] = test system: TGFBR1 mRNA; experiment: remaining TGFBR1 mRNA relative to control siRNA (off-target knock-down) (fraction of control); quantification method: branched DNA; higher = less knock-down
Method: as §1

Sequence | remaining TGFBR2 mRNA [5] | remaining TGFBR1 mRNA [6] | further results
ACUACGACUCAGUGCCUGGTT |  |  | remaining TGFBR1 mRNA [1]: 1; remaining TGFBR2 mRNA [2]: 0.7
AUGUGUACAGCCCUCUUCCTT |  |  | remaining TGFBR1 mRNA [1]: 1.84; remaining TGFBR2 mRNA [2]: 0.65
AGGAUCAGCAGCCCGUAGCTT |  |  | remaining TGFBR1 mRNA [1]: 1.52; remaining TGFBR2 mRNA [2]: 0.72
AUCCUGCAGAAUCACGUCCTT |  |  | remaining TGFBR1 mRNA [1]: 0.93; remaining TGFBR2 mRNA [2]: 0.7
UCUGUCAUAGGAUCCAAAATT |  |  | remaining TGFBR1 mRNA [3]: 0.74; remaining TGFBR2 mRNA [4]: 0.75
UGUCUCCUCUCUUGUCCGUTT |  |  | remaining TGFBR1 mRNA [1]: 0.95; remaining TGFBR2 mRNA [2]: 0.7
UUCAAUAGUUGUCAGAGGCTT | 1.62 | 1.35 | 
UGUGUAGCACAUGGGACACTT | 0.73 | 1.05 | 
UGUACUUCUCCUUGGAGAATT | 0.64 | 0.8 | 
AUGCUCCCUCUCAUACUCUTT | 0.39 | 0.9 | 
UCCAGCUGUUUCGUUCCUCTT | 0.36 | 0.85 | 
UGUUCUUGAAGUCCCGCAGTT | 0.78 | 1.69 | 
UCAACAAGCUAAGUCUGCCTT | 0.72 | 1.1 | 
CCUCAAUUGACACUUGCCUTT | 0.8 | 1 | 
UUAUCCCAUAUGAGCUCAGTT | 0.5 | 1.33 | 
UGGAGCUGCACAUAUUCCUTT | 0.27 | 1.2 | 
UUUCCUGGCCUCCUGGAACTT | 0.29 | 0.94 | 
AACACCAUCUACUUGAUGGTT |  |  | remaining TGFBR1 mRNA [1]: 1.31; remaining TGFBR2 mRNA [2]: 0.78
AACAUAGCCUCAUACAAGGTT | 0.25 | 0.7 | 
UAUCUCAUGAAAGCGCUUCTT | 0.25 | 1.12 | 
AGACUACUGUGGCCAGUAATT | 1.1 | 1.22 | 
AUUGAAGCCACCAUUCUCCTT | 0.94 | 0.23 | 
CAGAGCGAUCACCUUGAACTT | 0.17 | 0.66 | 

Sequence | remaining TGFBR2 mRNA [5] | remaining TGFBR1 mRNA [6] | further results
UGGACAUGGAGUGGCCUGATT | 0.55 | 1.09 | 
UUCCUUGGCUGUGAUGCUCTT | 0.11 | 0.93 | 
AUUAUGUCCUCUACGAUUATT | 0.49 | 0.76 | 
AUGUAUAGUCACGCAGUUCTT | 0.24 | 0.98 | 
CUCUGGGGAUUUGGAGGAUTT |  |  | remaining TGFBR1 mRNA [1]: 1.07; remaining TGFBR2 mRNA [2]: 0.71
CUUGGUACAGCACAUGGUUTT | 0.82 | 0.55 | 
CUCCUUGGCACACUUCUCATT | 0.34 | 0.93 | 
UACAUGAUGUAAACGAUAATT | 0.54 | 0.44 | 
UUUGUUGUCCAGUGGUCCGTT | 0.43 | 1.13 | 
ACUUUGGACAUGACCGGCUTT | 0.51 | 1.2 | 
AUGGUGUUUGCAAGCUCCUTT | 0.36 | 1 | 
UUGAGCGAUUCCAGCUGCATT | 0.85 | 1.77 | 
UCCUUGGUCCAUUAGGAGATT | 0.22 | 0.61 | 
UCCACGAUGAAGGGAUGCUTT | 0.7 | 1.06 | 
UGAAUAACCCUCUGGACAGTT | 0.83 | 0.45 | 
UCUCGCUGACGAAGCAGUATT |  |  | remaining TGFBR1 mRNA [1]: 1.1; remaining TGFBR2 mRNA [2]: 0.75
AUAAGCAGUAAGUAGCUGGTT | 0.99 | 0.5 | 
ACCAUGUCGGCCUUUUCAATT | 0.5 | 0.35 | 
UCAUAGCUCUGGCAUCGUCTT | 0.41 | 1.11 | 
AGCCUCUGGAGAAUCUCCUTT | 0.6 | 1.04 | 
GAUGAAGAAGAGCGCAGCATT | 1.08 | 1.27 | 
UUAUCCUGAUCACGUCUAGTT | 0.14 | 0.65 | 
AUAAGACAAGUGGUCGGGGTT | 0.94 | 0.52 | 

Sequence | remaining TGFBR2 mRNA [5] | remaining TGFBR1 mRNA [6] | further results
AUGCACCGAACAGCUCCAUTT | 0.31 | 1.56 | 
UUCGUCGAUGGCUUCGUCUTT | 0.65 | 0.67 | 
AAAAACCCUUUCCUGGGGCTT | 0.21 | 0.36 | 
AUCCUUGGAGAUGAGCUGGTT | 0.16 | 0.72 | 
UCUUGGCUUUGACACCGAGTT | 0.39 | 0.48 | 
AUCUAAACUCCUCUGGAGCTT | 0.38 | 0.76 | 
AUGACACCUCAGUCCUUCCTT | 0.88 | 0.38 | 
UGCAUUGGCUCCCACUUCATT | 0.33 | 0.26 | 
UAUAGUCCACAGACACGCUTT | 0.97 | 0.92 | 
AUGCACUGAAGAAUUUCUUTT | 0.75 | 0.43 | 
UCCCGUACUGGUUCUGGGGTT | 0.81 | 1.1 | 
AGAUCCAGGAUUACGCCAGTT | 0.72 | 0.88 | 
UCAAGUGCAGUAGUAGAUGTT | 0.51 | 1.09 | 
UGCACCUGACUUUUCUCUGTT |  |  | remaining TGFBR1 mRNA [1]: 1.37; remaining TGFBR2 mRNA [2]: 0.72
AGACUGCAAAUAUUCCUGATT | 0.49 | 1.31 | 
AUAUCCCGGGAGUUGUCGUTT | 0.37 | 1.1 | 
AUUGUUCCGGAAAUAGGUCTT | 0.72 | 1.15 | 
AUAUGUAAGACCUUCCUUCTT | 0.25 | 0.38 | 
UACUUAAAGCCAGGGCCACTT | 0.77 | 1.32 | 
AUGGUGUGGCUCGUCGUGCTT | 0.46 | 0.45 | 
AGAGAUUCCUUUUCUUCACTT | 0.79 | 0.24 | 
CUUGACUUCUGGGGUCCACTT | 0.94 | 0.92 | 
AUGGUGAGAAGACACAGGCTT | 0.54 | 1.33 | 

Sequence | remaining TGFBR2 mRNA [5] | remaining TGFBR1 mRNA [6] | further results
UCUGCAACGUAGAGGUUAUTT | 0.79 | 0.22 | 
UCCUUGGUGUAUUCUAACATT | 0.42 | 0.93 | 
UUGGAGCCCUUUCCUUUCUTT | 0.26 | 1.07 | 
AGGCAACAGGGAUGAGAUGTT | 0.2 | 0.93 | 
GAUGGACUGCAUACAUUGGTT | 0.87 | 0.29 | 
AGCUCAAACAGUAUCUGGUTT |  |  | remaining TGFBR1 mRNA [1]: 1.45; remaining TGFBR2 mRNA [2]: 0.7
GAAGGUGUGAGUGAGGUCATT | 1.17 | 0.19 | 
AGCGGUGCGUUUCAGGCUGTT | 0.7 | 1.06 | 
AAAUGCUCCACCUCUCGGGTT | 0.28 | 0.37 | 
UGGUGAAGAGGCACUUAACTT | 1.06 | 0.69 | 
AGCCAGAAACUCAGACACCTT | 0.67 | 0.99 | 
AUGUAUAGGUAGUGCACAGTT | 0.35 | 0.98 | 
GAUGUUCCACAAAUUCCACTT | 0.47 | 0.85 | 
UCCAUGGAUGCAGAAGUCCTT | 0.56 | 0.96 | 
UGUCCUGGUCACACUUCCATT | 0.5 | 0.23 | 
UUUUCCUGGCCUCUGAUCCTT | 0.15 | 0.99 | 
UUAUUUGGGUGGGCUGGGGTT |  |  | remaining TGFBR1 mRNA [1]: 0.98; remaining TGFBR2 mRNA [2]: 0.75
UUUCAGCAAUACAAGCCCGTT | 0.68 | 0.39 | 
AACUGGUUCAGGUACUUCCTT |  |  | remaining TGFBR1 mRNA [1]: 0.95; remaining TGFBR2 mRNA [2]: 0.71
UCUACCCAGAACUCCACGATT | 1.01 | 0.14 | 
UUCUUCUGGUCCAUACUCATT | 0.66 | 0.45 | 
AGACGGCAAACGACUGUCCTT |  |  | remaining TGFBR1 mRNA [1]: 1.27; remaining TGFBR2 mRNA [2]: 0.75
UGUAGUGAAUUCCAAAGAGTT | 0.41 | 0.47 | 
